Tests used:
[1] = test system: Salmonella Typhimurium in PAM; experiment: Invasion assay in PAM; type: cell-based, porcine; conditions: for invasion of Salmonella Typhimurium in PAM: 1 μM
Method: (§1) For the invasion assays, PAM and IPEC-J2 cells were seeded in 24-well plates at a density of approximately 5×10^5 cells and 10^5 cells per well, respectively. PAM were allowed to attach for at least 2 hours and IPEC-J2 cells were allowed to grow for at least 24 hours. […] After 24 hours the invasion assay was performed as described by Boyen et al., 2009a. Finally the PAM and IPEC-J2 cells were washed 3 times and lysed for 10 min with 1% (v/v) Triton X-100 or 0.2% (w/v) sodium deocxycholate (Sigma-Aldrich), respectively and 10-fold dilutions were plated on BGA plates.

[2] = test system: Salmonella Typhimurium in IPEC-J2 cells; experiment: Intracellular survival assay in IPEC-J2 cells; type: cell-based, porcine
Method: The polarized intestinal porcine epithelial (IPEC-J2) cell line is derived from jejunal epithelia isolated from a neonatal piglet (Rhoads et al., 1994; Schierack et al., 2006).
(§2) The number of viable bacteria was assessed 24 hours after infection.

[3] = test system: Salmonella Typhimurium in PAM; experiment: Intracellular survival assay in PAM; type: cell-based, porcine; conditions: for intracellular proliferation of Salmonella Typhimurium in PAM: 1 μM
Source text: Porcine pulmonary alveolar macrophages (PAM) were isolated by broncho-alveolar washes from lungs of euthanized 3 to 4 week old piglets, obtained from a Salmonella-negative farm, as described previously (Dom et al., 1992). The isolated cells were pooled and frozen in liquid nitrogen until further use. Prior to seeding the cells, frozen aliquots of approximately 10^8 cells per ml were thawed and washed 3 times in Hank's buffered salt solution with Ca^2+ and Mg^2+ (HBSS+, Gibco) with 10% (v/v) fetal calf serum (FKS, Hyclone, Cramlington, England) at 4° C. Finally, these cells were cultured in Roswell Park Memorial Institute medium (RPMI, Gibco) containing 10% (v/v) FKS, 1% (v/v) L-glutamine (Gibco), 1% (v/v) sodium pyruvate (Gibco), 1% (v/v) MEM non essential amino acids (NEAA, Gibco) and 1% (v/v) penicillin-streptomycin (Gibco).
as §2
Following the IVET screening, the intracellular survival assay was repeated with Salmonella Typhimurium ΔscsA and ΔcbpA and compared to the WT.

[4] = test system: Salmonella Typhimurium in IPEC-J2 cells; experiment: Invasion assay in IPEC-J2 cells; type: cell-based, porcine; conditions: for invasion of Salmonella Typhimurium in IPEC-J2 cells: 1 μM
Method: as §1

PAM = experiment: Cytotoxicity assay (LDH); type: cell-based, porcine; conditions: 0.001 to 100 μM
Method: Therefore PAM were seeded in a 96-well microplate at a density of approximately 2×10^5 cells per well and were allowed to attach for at least 2 hours. The IPEC-J2 cells were seeded and allowed to grow for at least 24 hours in a 96-well microplate at a density of approximately 2×10^4 cells per well in Dulbecco's modified Eagle's is medium (DMEM, Gibco) supplemented with 46.5% (v/v) Ham's F12 medium (Gibco), 5% (v/v) FKS and 1% insulin-transferrin-selenium-A supplement (ITS, Gibco).
The LDH test was used in accordance to the manufacturer's instructions and the absorbance was measured at 492 nm using a microplate ELISA reader (Multiscan M S, Thermo Labsystems, Helsinki, Finland).

[5] = test system: Salmonella Typhimurium infected PAM; experiment: iTRAQ comparative proteome study of cortisol treated Salmonella infected PAM; type: cell-based, porcine; conditions: 1 μM cortisol
Source text: We used a gel-free approach called isobaric tags for relative and absolute quantification (iTRAQ) in which four different isobaric labels are used to tag N-termini and lysine side chains of four different samples with four different isobaric reagents. Upon collision-induced dissociation during MS/MS, the isobaric tags are released, which results in four unique reporter ions that are used to quantify the proteins in the four different samples (Ross et al., 2004).
Sample preparation: PAM were isolated and cultured as described in Verbrugghe et al. (2011), they were seeded in 175 cm^2 cell culture flasks at a density of approximately 5×10^7 cells per flask and were allowed to attach for 2 hours. Subsequently, PAM were washed 3 times with Hank's buffered salt solution with Ca^2+ and Mg^2+ (HBSS+, Gibco) and a gentamicin protection invasion assay was performed as described by Boyen et al. (2009a). Briefly, Salmonella was inoculated into the cell culture flasks at a multiplicity of infection (MOI) of 10:1. To synchronize the infection, the inoculated flasks were centrifuged at 365×g for 10 min and incubated for 30 min at 37° C. under 5% CO2. […] The supernatant was held on ice until further use and the pellet was dissolved and sonicated (6 times 30 sec), using an ultrasonic processor XL 2015 (Misonix, Farmingdale, N.Y., USA), in reagent 3 of the Ready Prep Sequential extraction kit (Bio-Rad, Hercules, Calif., USA). […] Protein concentration was determined using the Bradford Protein Assay (Thermo Fisher Scientific, Rockford, USA) according to the manufacterer's instructions.
Trypsin digest and iTRAQ labeling: Digest and labeling of the samples (100 μg proteins per sample) with iTRAQ reagents was performed according to the manufacturer's guidelines (AB Sciex, Foster City, Calif., USA). Individual samples of cortisol treated or untreated PAM were analyzed in the same run, making paired comparisons possible and minimizing technical variation. […] Each fraction was analyzed by nano LC-MSMS as described by Bijttebier et al. (2009). […]

[6] = test system: Salmonella Typhimurium in PAM; conditions: 1 μM, 24 hours; cited from earlier work
[7] = test system: Salmonella Typhimurium WT; experiment: Effect of cortisol on the growth of Salmonella Typhimurium; conditions: 0.001 to 100 μM, LB broth, 24 hours
Method: Therefore, Salmonella Typhimurium was grown in LB broth whether or not supplemented with cortisol. The number of CFU per ml was determined at different time points by titration of 10-fold dilutions of the bacterial suspensions on BGA. After incubation for 24 hours at 37° C., the number of colonies was counted.

[8] = test system: Salmonella Typhimurium WT; experiment: Effect of cortisol on the gene expression of Salmonella Typhimurium (microarray); conditions: 1 μM, stationary and logarithmic phase culture
Method: Two OD600 nm units of each culture were incubated in one-fifth culture volume 5% (v/v) phenol pH 4.3/95% (v/v) ethanol solution for 30 min on ice to stabilize the RNA. Subsequently, the RNA was extracted using the SV Total RNA purification kit (Promega, Leiden, the Netherlands).
Each condition was tested in triplicate and transcriptomic techniques involved Salmonella Typhimurium microarrays constructed at the Institute of Food Research, Norwich, UK, as described previously (Clements et al., 2002; Yberg et al., 2006). The microarray used in this study was the whole-genome SALSA cDNA microarray covering 5080 genes and data analysis was performed as described by Eriksson-Ygberg et al., 2006.

[9] = test system: Salmonella Typhimurium in PAM; experiment: Contribution of the cytoskeleton to cortisol induced intracellular proliferation in PAM; type: cell-based, porcine; conditions: 2 μM cytochalasin D and/or 20 μM nocodazole, 1 μM cortisol, 24 hours
Method: Therefore, PAM is were seeded in 24-well plates at a density of approximately 5×10^5 cells per well, allowed to attach for 2 hours and infected with Salmonella, as described in the iTRAQ analysis.

pig = conditions: 2 mg dexamethasone per kg body weight; cited from earlier work

CNC[C@H](O)c1ccc(O)c(O)c1 [Epinephrine, epinephrine]
invasion of Salmonella Typhimurium in PAM [1]: did neither affect | intracellular proliferation of Salmonella Typhimurium in IPEC-J2 cells ([2]; 1 μM): did neither affect | intracellular proliferation of Salmonella Typhimurium in PAM [3]: did neither affect | invasion of Salmonella Typhimurium in IPEC-J2 cells [4]: did neither affect

C[C@]12CCC(=O)C=C1CC[C@@H]1[C@@H]2[C@@H](O)C[C@@]2(C)[C@H]1CC[C@]2(O)C(=O)CO [cortisol, Cortisol]
invasion in PAM ([1]; 0.001 to 100 μM): did neither affect | intracellular proliferation of Salmonella Typhimurium in IPEC-J2 cells ([2]; 0.001 to 100 μM): did neither affect | effect on cell viability (PAM): did not exert a notable effect | number of proteins more abundant in cortisol treated PAM [5]: 21 | number of proteins with higher levels in untreated PAM [5]: Two | number of proteins with recurrent expressional differences, treated vs untreated infected PAM [5]: 23 | number of intracellular Salmonella Typhimurium bacteria compared to untreated PAM [6]: significant increase | growth of Salmonella [7]: did not affect | intracellular proliferation of Salmonella Typhimurium in treated PAM in comparison to non-treated cells ([3]; 24 hours): higher | concentration leading to a significant dose-dependent increase of the number of intracellular bacteria ([3]; PAM, 24 hours): 100 nM | invasion in IPEC-J2 cells ([4]; 0.001 to 100 μM): did neither affect | gene expression levels by microarray analysis [8]: did not significantly affect

C=C1[C@@H](C)[C@H]2[C@H](Cc3ccccc3)NC(=O)[C@]23[C@H](OC(C)=O)/C=C/[C@@](C)(O)C(=O)[C@@H](C)C/C=C/[C@H]3[C@@H]1O [cytochalasin D]
cortisol induced increased survival of the bacterium in PAM [9]: inhibition

C[C@@H]1C[C@H]2[C@@H]3CCC4=CC(=O)C=C[C@]4(C)[C@@]3(F)[C@@H](O)C[C@]2(C)[C@@]1(O)C(=O)CO [dexamethasone]
effect on cell viability (PAM): did not exert a notable effect | immunosuppression of the pig (pig): does not cause immunosuppression

NCCc1ccc(O)c(O)c1 [dopamine]
invasion of Salmonella Typhimurium in PAM [1]: did neither affect | intracellular proliferation of Salmonella Typhimurium in IPEC-J2 cells ([2]; 1 μM): did neither affect | intracellular proliferation of Salmonella Typhimurium in PAM [3]: did neither affect | invasion of Salmonella Typhimurium in IPEC-J2 cells [4]: did neither affect

COC(=O)Nc1nc2ccc(C(=O)c3cccs3)cc2[nH]1 [nocodazole]
cortisol induced increased survival of the bacterium in PAM [9]: inhibition

NC[C@H](O)c1ccc(O)c(O)c1 [norepinephrine]
invasion of Salmonella Typhimurium in PAM [1]: did neither affect | intracellular proliferation of Salmonella Typhimurium in IPEC-J2 cells ([2]; 1 μM): did neither affect | intracellular proliferation of Salmonella Typhimurium in PAM [3]: did neither affect | invasion of Salmonella Typhimurium in IPEC-J2 cells [4]: did neither affect
